# Reference: US9717756B2, “Method of treating traumatic brain or spinal cord injury with biomembrane sealing agent and magnesium compounds” (Warsaw Orthopedic, Inc., priority 2006, dated 2017)
# Assays:
# [1] = tested on: controlled cortical impact model of brain injury (TBI); assay: Morris Water Maze test of cognitive function after controlled cortical impact TBI; type: in vivo, rat
# Description: Male Sprague-Dawley rats (Harlan Sprague-Dawley, Indianapolis, Ind.), weighing 350-450 grams each were given free access to food and water before the experiment. The animals were anesthetized with halothane (1% in 70%/30% NO2/O2 by mask).
# Animals were anesthetized with isoflorane and placed in a stereotaxic frame in the supine position. A 6 mm craniotomy located approximately midway between bregma and lambda, just above the somatosensory cortex, was made using a Michele trephine. The skull disk was then removed without disturbing the underlying dura mater. The exposed brain was injured using an electronically controlled piston (5 mm diameter, 65 kdynes). The animals in the “sham” group underwent identical surgical procedures, but the surface of the brain was not impacted.
# Following surgery, animals were placed in their home cage and dosing was initiated. Animals were treated with saline (Group 1: sham, Group 2: injured), PEG (Group 3: injured), magnesium (Group 4: injured) or a combination of PEG and magnesium solutions (Group 5: injured). The PEG solution was composed of PEG3350 at 30% in 0.5% saline (custom made by AAIPharma Developmental Services, Wilmington, N.C.). […] The magnesium solution was diluted in saline 1:1 before intravenous injection as recommended by the manufacturer. In the cases of combined PEG+Mg combined treatments, animal received the PEG and magnesium components from two individual solutions.
# In more details, each animal received 2 injections: • Group 1: Sham—1.23 ml/kg of saline solution followed by 1.23 ml/kg of saline solution; • Group 2: Injured—1.23 ml/kg of saline solution followed by 1.23 ml/kg of saline solution; • Group 3: Injured—2.33 ml/kg of PEG solution followed by 0.12 ml/kg of saline solution; • Group 4: Injured—0.12 ml/kg of magnesium solution followed by 2.33 ml/kg of saline solution; • Group 5: Injured—2.33 ml/kg of PEG solution followed by 0.12 ml/kg of magnesium solution. […]
# The effects of PEG, magnesium sulfate and combined treatment on recovery of cognitive function following TBI were evaluated using the Morris Water Maze Test. […]
# [2] = tested on: pain; conditions: human, in vivo; cited from earlier work
# [3] = tested on: carrageenan-induced hind paw acute inflammation; assay: Carrageenan hind paw acute inflammation, mechanical allodynia (up-down method); type: in vivo, rat; conditions: Example 7, 24 hours after carrageenan
# Description: Animals were treated with saline (0.5% final), indomethacin, PEG, magnesium or combined PEG+magnesium solutions. Each animal received 2 injections, the first one 1 hour following carrageenan injection and the second injection 6 hours later. The total dose of PEG and magnesium chloride administered was of 2 and 0.135 g/kg (body weight) respectively. There were 10 animals per group.
# Indomethacin (Fluka, cat. 57413, lot 450544/1) was dissolved in 25% hydroxyl-propyl beta cyclodextrin (hpBCD) by gentle heating and stirring. The PEG solution was composed of PEG3350 at 30% in 0.5% saline, the magnesium solution was composed of magnesium chloride at 2% and the combined PEG+magnesium solution was composed of 30% PEG3350+2% Magnesium Chloride (custom made by AAIPharma Developmental Services, Wilmington, N.C.). […]
# Twenty-four hours following carrageenan injection into the left paw, the same paw was tested for mechanical allodynia. Baseline and post-treatment values for non-noxious mechanical sensitivity were evaluated using 8 Semmes-Weinstein filaments (Stoelting, Wood Dale, Ill., USA) with varying stiffness (0.4, 0.7, 1.2, 2.0, 3.6, 5.5, 8.5, and 15 g) according to the up-down method (Chaplan et al., 1994). […]
# To evaluate the significance of difference between experimental groups, data were analyzed using an unpaired, two-tailed t statistical test with confidence intervals of 95%.
# [4] = tested on: TBI; conditions: trial initiated in 1999; cited from earlier work
# [5] = tested on: neuropathic pain after SCI; assay: Mechanical allodynia (neuropathic pain score, Semmes-Weinstein monofilament) after SCI; type: in vivo, rat; conditions: Example 6; up to 3 weeks post-injury
# Description: Animals were prepared as described in Example 3.
# Animals were tested for the development of neuropathic pain before and up to 3 weeks post-injury. Neuropathic pain occurrence and severity was evaluated by the response of the animal to a stimulus that is normally not painful or allodynia. Briefly, a modified Semmes-Weinstein monofilament (Stoelting Co, Wood Dale, Ill.) calibrated to generate a force of 15 mN was applied to the dorsal trunk at dermatomes corresponding to spinal segments immediately rostral to the lesion level (T1-T3). The monofilament was applied 10 times for 3 seconds, with each stimulus being separated by a 5 second interval, and the number of avoidance responses out of a possible 10 were recorded. Avoidance responses were defined as flinching, escape, vocalization, or abnormal aggressive behaviors. The scoring system used to monitor mechanical allodynia has been presented in details in Gris et al., 2004. Mechanical allodynia testing was conducted twice per week and the 2 tests were averaged for each animal and reported as a weekly pain score.
# To evaluate the significance of difference between experimental groups, data were analyzed using an unpaired, two-tailed t statistical test with confidence intervals of 95%. The Welch's modification was also used to analyze the motor recovery to take in account the significant variability in the control group. […]
# [6] = tested on: stroke; conditions: intravenous, up to 12 hours following stroke onset; 2589 patients; cited from earlier work
# [7] = tested on: clip-compression injury at T4 (SCI); assay: Locomotor recovery, 21-point BBB open field test, after clip-compression SCI; type: in vivo, rat; conditions: Example 5; day 7 post-SCI; total 0.6 g/kg magnesium sulfate iv
# Description: Wistar female rats weighing 200-250 grams received a controlled clip-compression injury at T4. This experimental model has been previously described in details in Gris et al., 2004. Briefly, animals were premedicated with diazepam (3.5 mg/kg, i.p.) and atropine (0.05 mg/kg, s.c.) in order to facilitate a smooth induction of anesthesia by 4% halothane and maintenance with 1.0-1.5% halothane. The T4 spinal cord segment was exposed by dorsal laminectomy and a modified aneurysm clip, calibrated to 50 grams compression was passed extradurally around the cord and spring released for 60 seconds. Nerve roots were not disrupted during the clip compression.
# Following SCI, animals were placed in their home cage and dosing was initiated. […]
# Locomotor recovery was assessed by the 21-point Basso, Beatie and Bresnahan (BBB) open field locomotor test (Basso et al., 1995), from day 3-21 after injury. Locomotor function was evaluated by 2 blinded investigators at each testing period.
# (§1) To evaluate the significance of difference between experimental groups, data were analyzed using an unpaired, two-tailed t statistical test with confidence intervals of 95%. […]
# Following SCI, rats were treated with saline, PEG, Mg or a combined solution of PEG and Mg. Locomotor recovery was assessed by the 21-point BBB score system from day 3-25 post-injury.
# [8] = tested on: spinal cord contusion at T10 (SCI); assay: Spinal cord lesion volume after SCI contusion (eriochrome cyanine sections); type: in vivo, rat; conditions: Example 4, sacrificed on day 14, total 2 g/kg PEG, 0.12 g/kg magnesium sulfate
# Description: Following surgery, animals were placed in their home cage and dosing was initiated. […]
# At the end of the study, the spinal cords were extracted and fixed in 4% paraformaldehyde. […] Tissue sparing was determined by computed image analysis be from 10 evenly spaced sections through the injured T10 segment. […]
# [9] = tested on: spinal cord contusion at T10 (SCI); assay: Locomotor recovery, modified 12-point BBB scale, after spinal cord contusion (dural impact model); type: in vivo, rat; conditions: Example 4; iv, 15 min and 6 h post-injury; total 2 g/kg PEG, 0.12 g/kg magnesium sulfate
# Description: Sprague-Dawley female rats (200-225 gm) received a spinal cord contusion using the Precision Scientific Inc pneumatic impactor. Prior to surgery, rats were assigned to different treatment groups based on a randomized block design so that on any given surgery day all treatments would be included. The rats were anesthetized with ketamine (80 mg/kg) and xylazine (10 mg/kg) before a laminectomy will be performed at the 10th thoracic vertebra (T10). The vertebral column was stabilized with angled clamps on the upper thoracic (T8) and lumbar (T11) levels and the impactor with a tip diameter of 2 mm was delivered at approximately 50 kd onto the exposed, intact dura overlying the dorsal spinal cord. The impactor was immediately removed, the wound irrigated with saline, and the muscle and skin openings sutured together. Female animals were used due to the paralysis associated with the injury and ease of voiding the bladder.
# Following surgery, animals were placed in their home cage and dosing was initiated. Animals were treated with saline (Group 1: sham, Group 2: injured), PEG (Group 3: injured), magnesium (Group 4: injured) or a combination of PEG and magnesium solutions (Group 5: injured). […]
# as §1
structure (smiles),measurement,setting,value
"[Cl-].[Cl-].[Mg+2] [Magnesium, magnesium chloride]",effect on the loss of cognitive functions following brain injury,[1]; summary statement in the description,no effect
same,duration of analgesic effect,[2],≤ 4 h
same,effect on the pain score relative to animals treated with saline,[3]; total 2 g/kg PEG or 0.135 g/kg magnesium chloride,no significant effect
[Cl-].[Cl-].[Mg+2] [magnesium chloride],effect on cognitive recovery after TBI,"[1]; Example 2, total 1.4 g/kg PEG or 0.230 mmol/kg magnesium chloride",no significant effect
COc1ccc2c(c1)c(CC(=O)O)c(C)n2C(=O)c1ccc(Cl)cc1 [Indomethacin],mean pain score (mechanical allodynia),"[3]; carrageenan-saline 3.4+/−0.5, sham 12.7+/−1.1, higher is better",5.6+/−0.9
"O=S(=O)([O-])[O-].[Mg+2] [Mg, magnesium sulfate]",effect on cognitive functions following TBI,"[1]; Example 1, iv, 15 min and 6 h post-injury, total 1.4 g/kg PEG or 0.230 mmol/kg magnesium sulfate",no effect
same,preliminary data of clinical trial in TBI patients,[4],negative
same,effect on the development of neuropathic pain after SCI,[5],no significant effect
same,clinical improvement after stroke,[6],no significant improvement
same,effect on motor recovery (21-point BBB),[7],Some improvement
same,reduction of the lesion volume relative to control group (SCI-Saline),[8],33%
same,effect on motor functions following SCI (12-point BBB score) relative to SCI-Saline group,[9],no effect
